In brackets after ≈: the same amount, converted by molar mass. Like-named read-outs stand apart in the source and are kept apart here.
What was measured:
[1] = tested on: 385 Escherichia coli and 126 Klebsiella pneumoniae isolates; experiment: MIC, MIC50 and MIC90 by reference broth microdilution against 511 UTI/bloodstream isolates (USA and Europe 2014-2015); assay type: cell-based
[2] = tested on: Burkholderia pseudomallei 1026b; experiment: microbe, parasite or virus in culture; assay type: cell-based
[3] = tested on: beta-lactamase producing E. coli (CTX-M-55; CTX-M-15, TEM-OSBL); experiment: microbe, parasite or virus in culture; assay type: cell-based
[4] = tested on: beta-lactamase producing K. pneumoniae; experiment: In vitro chemostat model, clavulanate exposures with fixed ceftibuten exposure; assay type: cell-based
[5] = tested on: E. coli clinical isolate expressing the ESBL CTX-M-15; assay type: in vivo, mouse; conditions: 0.5-4 mg/kg q4 hr s.c. for 3 days
[6] = in vivo, cited from earlier work
[7] = In vivo drug-drug interaction, plasma pharmacokinetics after oral bolus; conditions: rat, oral 34.5 mg/kg ceftibuten ± 10.8 mg/kg clavulanate

SMILES: Nc1nc(/C(=C/CC(=O)O)C(=O)N[C@@H]2C(=O)N3C(C(=O)O)=CCS[C@H]23)cs1 [Ceftibuten, ceftibuten]
- cumulative % of isolates at MIC ([1]; MIC 1 μg/mL, Isolates producing CTX-M Group 9 (92)): (50.0) %
- cumulative % of isolates at MIC ([1]; MIC 1 μg/mL, Isolates producing SHV ESBL (18)): (55.6) %
- cumulative % of isolates at MIC ([1]; MIC 1 μg/mL, K pneumoniae (126)): (15.1) %
- cumulative % of isolates at MIC ([1]; MIC 2 μg/mL, All CTX-M-producing E. coli (294)): (34.4) %
- cumulative % of isolates at MIC ([1]; MIC 2 μg/mL, All CTX-M-producing K pneumoniae (71)): (15.5) %
- cumulative % of isolates at MIC ([1]; MIC 2 μg/mL, All CTX-M-producing isolates (365)): (30.7) %
- cumulative % of isolates at MIC ([1]; MIC 2 μg/mL, E. coli (385)): (30.4) %
- cumulative % of isolates at MIC ([1]; MIC 2 μg/mL, Isolates producing CTX-M Group 1 (276)): (15.2) %
- cumulative % of isolates at MIC ([1]; MIC 2 μg/mL, Isolates producing CTX-M Group 9 (92)): (76.1) %
- cumulative % of isolates at MIC ([1]; MIC 2 μg/mL, Isolates producing SHV ESBL (18)): (61.1) %
- cumulative % of isolates at MIC ([1]; MIC 2 μg/mL, K pneumoniae (126)): (19.0) %
- cumulative % of isolates at MIC ([1]; MIC 4 μg/mL, All CTX-M-producing E. coli (294)): (45.6) %
- cumulative % of isolates at MIC ([1]; MIC 4 μg/mL, All CTX-M-producing K pneumoniae (71)): (32.4) %
- cumulative % of isolates at MIC ([1]; MIC 4 μg/mL, All CTX-M-producing isolates (365)): (43.0) %
- cumulative % of isolates at MIC ([1]; MIC 4 μg/mL, E. coli (385)): (40.0) %
- cumulative % of isolates at MIC ([1]; MIC 4 μg/mL, Isolates producing CTX-M Group 1 (276)): (28.3) %
- cumulative % of isolates at MIC ([1]; MIC 4 μg/mL, Isolates producing CTX-M Group 9 (92)): (87.0) %
- cumulative % of isolates at MIC ([1]; MIC 4 μg/mL, Isolates producing SHV ESBL (18)): (66.7) %
- cumulative % of isolates at MIC ([1]; MIC 4 μg/mL, K pneumoniae (126)): (31.7) %
- cumulative % of isolates at MIC ([1]; MIC 8 μg/mL, All CTX-M-producing E. coli (294)): (66.3) %
- cumulative % of isolates at MIC ([1]; MIC 8 μg/mL, All CTX-M-producing K pneumoniae (71)): (56.3) %
- cumulative % of isolates at MIC ([1]; MIC 8 μg/mL, All CTX-M-producing isolates (365)): (64.4) %
- cumulative % of isolates at MIC ([1]; MIC 8 μg/mL, E. coli (385)): (56.9) %
- cumulative % of isolates at MIC ([1]; MIC 8 μg/mL, Isolates producing CTX-M Group 1 (276)): (55.8) %
- cumulative % of isolates at MIC ([1]; MIC 8 μg/mL, Isolates producing CTX-M Group 9 (92)): (89.1) %
- cumulative % of isolates at MIC ([1]; MIC 8 μg/mL, Isolates producing SHV ESBL (18)): (72.2) %
- cumulative % of isolates at MIC ([1]; MIC 8 μg/mL, K pneumoniae (126)): (53.2) %
- cumulative % of isolates at MIC ([1]; MIC 16 μg/mL, All CTX-M-producing E. coli (294)): (83.0) %
- cumulative % of isolates at MIC ([1]; MIC 16 μg/mL, All CTX-M-producing K pneumoniae (71)): (73.2) %
- cumulative % of isolates at MIC ([1]; MIC 16 μg/mL, All CTX-M-producing isolates (365)): (81.1) %
- cumulative % of isolates at MIC ([1]; MIC 16 μg/mL, E. coli (385)): (73.0) %
- cumulative % of isolates at MIC ([1]; MIC 16 μg/mL, Isolates producing CTX-M Group 1 (276)): (76.8) %
- cumulative % of isolates at MIC ([1]; MIC 16 μg/mL, Isolates producing CTX-M Group 9 (92)): (92.4) %
- cumulative % of isolates at MIC ([1]; MIC 16 μg/mL, Isolates producing SHV ESBL (18)): (94.4) %
- cumulative % of isolates at MIC ([1]; MIC 16 μg/mL, K pneumoniae (126)): (69.0) %
- cumulative % of isolates at MIC ([1]; MIC >[…] μg/mL, All CTX-M-producing E. coli (294)): (100.0) %
- cumulative % of isolates at MIC ([1]; MIC >[…] μg/mL, All CTX-M-producing K pneumoniae (71)): (100.0) %
- cumulative % of isolates at MIC ([1]; MIC >[…] μg/mL, All CTX-M-producing isolates (365)): (100.0) %
- cumulative % of isolates at MIC ([1]; MIC >[…] μg/mL, E. coli (385)): (100.0) %
- cumulative % of isolates at MIC ([1]; MIC >[…] μg/mL, Isolates producing CTX-M Group 1 (276)): (100.0) %
- cumulative % of isolates at MIC ([1]; MIC >[…] μg/mL, Isolates producing CTX-M Group 9 (92)): (100.0) %
- cumulative % of isolates at MIC ([1]; MIC >[…] μg/mL, Isolates producing SHV ESBL (18)): (100.0) %
- cumulative % of isolates at MIC ([1]; MIC >[…] μg/mL, K pneumoniae (126)): (100.0) %
- cumulative % of isolates at MIC ([1]; MIC […] μg/mL, All CTX-M-producing E. coli (294)): (91.8) %
- cumulative % of isolates at MIC ([1]; MIC […] μg/mL, All CTX-M-producing K pneumoniae (71)): (83.1) %
- cumulative % of isolates at MIC ([1]; MIC […] μg/mL, All CTX-M-producing isolates (365)): (90.1) %
- cumulative % of isolates at MIC ([1]; MIC […] μg/mL, E. coli (385)): (82.1) %
- cumulative % of isolates at MIC ([1]; MIC […] μg/mL, Isolates producing CTX-M Group 1 (276)): (87.7) %
- cumulative % of isolates at MIC ([1]; MIC […] μg/mL, Isolates producing CTX-M Group 9 (92)): (95.7) %
- cumulative % of isolates at MIC ([1]; MIC […] μg/mL, Isolates producing SHV ESBL (18)): (94.4) %
- cumulative % of isolates at MIC ([1]; MIC […] μg/mL, K pneumoniae (126)): (79.4) %
- cumulative % of isolates at MIC ([1]; MIC […], Enterobacteriaceae (511)): (5.1) %
- MIC [2]: 8 µg/mL (≈ 19.5 µM)
- MIC ([3]; E. coli CTX-M-15, TEM-OSBL): > 64 µg/mL
- MIC ([3]; E. coli CTX-M-55, listed as CTB): >64 µg/mL
- MIC ([3]; Escherichia coli, E. coli CTX-M-55, read-out: MIC): > 64 µg/mL
- MIC ([4]; K. pneumoniae CTX-M-14, SHV-12): 16 µg/mL
- MIC ([4]; K. pneumoniae CTX-M-15, SHV-12): > 64 µg/mL
- bacterial titers, bladder [5]: 4.06-4.58 log10 CFU
- bacterial titers, kidneys [5]: 4.26-5.83 log10 CFU
- bacterial titers, urine [5]: 3.62-4.81 log10 CFU
- reduction of bacterial titers relative to untreated control, bladder [5]: 2.8-3.35 log10 CFU
- reduction of bacterial titers relative to untreated control, kidneys [5]: 0.6-2.17 log10 CFU
- reduction of bacterial titers relative to untreated control, urine [5]: 2.46-3.65 log10 CFU
- Mean Cmax ([6]; 400 mg): 15000 ng/mL
- Mean fCmax ([6]; 400 mg): 5.3 µg/mL
- bioavailability ([6]; po): 40-90%
- time free drug concentrations >2 μg/mL following drug administration ([6]; po): at least 6 hours
- Elimination half-life [6]: ~2.4 h
- Mean unbound plasma concentration following one elimination half-life [6]: 2600 ng/mL
- effect of the combination on plasma concentration of ceftibuten vs ceftibuten alone [7]: did not markedly alter
